Results published in ChEMBL document CHEMBL1201862, “PubChem BioAssay data set” (2004).
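Dose response: 5 concentrations. Exposure: 48 h. Format: 96-well plates. Endpoint: linear interpolation; highest concentration if not reached. GI50 is the concentration that inhibits growth by half.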 Active and inactive are the calls of the source. Cut-off read from the data, not from the text of the source: active = GI50 up to about 1.1 µM and inactive = higher.

Legend:
Assay in all cases: NCI-60 cell line screen, 48 h
PC-3 = test system: PC-3
SW-620 = test system: SW-620
NCI-H460 = test system: NCI-H460
786-0 = test system: 786-0
SK-MEL-28 = test system: SK-MEL-28
UO-31 = test system: UO-31
HCT-15 = test system: HCT-15
COLO 205 = test system: COLO 205
K562 = test system: K562
UACC-62 = test system: UACC-62
SK-MEL-5 = test system: SK-MEL-5
CAKI-1 = test system: CAKI-1
U-251 = test system: U-251
EKVX = test system: EKVX
TK-10 = test system: TK-10
LOX IMVI = test system: LOX IMVI
SN12C = test system: SN12C
NCI-H23 = test system: NCI-H23
ACHN = test system: ACHN
KM12 = test system: KM12
DU-145 = test system: DU-145
NCI/ADR-RES = test system: NCI/ADR-RES
HT-29 = test system: HT-29
MDA-N = test system: MDA-N
IGROV-1 = test system: IGROV-1
RXF 393 = test system: RXF 393
SNB-19 = test system: SNB-19
M14 = test system: M14
A549 = test system: A549
SF-539 = test system: SF-539
SR = test system: SR
OVCAR-3 = test system: OVCAR-3
MDA-MB-231 = test system: MDA-MB-231
MCF7 = test system: MCF7
Hs-578T = test system: Hs-578T
RPMI-8226 = test system: RPMI-8226
BT-549 = test system: BT-549
NCI-H226 = test system: NCI-H226
NCI-H522 = test system: NCI-H522
OVCAR-8 = test system: OVCAR-8
SNB-75 = test system: SNB-75
UACC-257 = test system: UACC-257
HL-60 = test system: HL-60
SK-OV-3 = test system: SK-OV-3
SF-268 = test system: SF-268
MOLT-4 = test system: MOLT-4
HCC 2998 = test system: HCC 2998
CCRF-CEM = test system: CCRF-CEM
Malme-3M = test system: Malme-3M
A498 = test system: A498
OVCAR-5 = test system: OVCAR-5
HOP-62 = test system: HOP-62
OVCAR-4 = test system: OVCAR-4
SK-MEL-2 = test system: SK-MEL-2
SF-295 = test system: SF-295
T47D = test system: T47D
HCT-116 = test system: HCT-116
MDA-MB-435 = test system: MDA-MB-435
HOP-92 = test system: HOP-92

Measured: GI50

NNC(=O)CCSc1ccccc1
> 100 µM: HCT-15
inactive: PC-3 > 100 µM | SW-620 > 100 µM | NCI-H460 > 100 µM | 786-0 > 100 µM | SK-MEL-28 > 100 µM | UO-31 > 100 µM | COLO 205 > 100 µM | K562 > 100 µM | UACC-62 > 100 µM | SK-MEL-5 > 100 µM | CAKI-1 > 100 µM | U-251 > 100 µM | EKVX > 100 µM | TK-10 > 100 µM | LOX IMVI > 100 µM | SN12C > 100 µM | NCI-H23 > 100 µM | ACHN > 100 µM | KM12 > 100 µM | DU-145 > 100 µM | NCI/ADR-RES > 100 µM | HT-29 > 100 µM | MDA-N > 100 µM | IGROV-1 > 100 µM | RXF 393 > 100 µM | SNB-19 > 100 µM | M14 > 100 µM | A549 > 100 µM | SF-539 > 100 µM | SR > 100 µM | OVCAR-3 > 100 µM | MDA-MB-231 > 100 µM | MCF7 > 100 µM | Hs-578T > 100 µM | RPMI-8226 > 100 µM | BT-549 > 100 µM | NCI-H226 > 100 µM | NCI-H522 > 100 µM | OVCAR-8 > 100 µM | SNB-75 > 100 µM | UACC-257 > 100 µM | HL-60 > 100 µM | SK-OV-3 > 100 µM | SF-268 > 100 µM | MOLT-4 > 100 µM | HCC 2998 > 100 µM | CCRF-CEM > 100 µM | Malme-3M > 100 µM | A498 > 100 µM | OVCAR-5 > 100 µM | HOP-62 > 100 µM | OVCAR-4 > 100 µM | SK-MEL-2 > 100 µM | SF-295 > 100 µM | T47D > 100 µM | HCT-116 > 100 µM | MDA-MB-435 > 100 µM

O=C(O)CN1C(=O)c2ccc(NC(=O)C(=O)O)cc2S1(=O)=O
> 100 µM: HCT-15
inactive: PC-3 > 100 µM | SW-620 > 100 µM | NCI-H460 > 100 µM | 786-0 > 100 µM | SK-MEL-28 > 100 µM | UO-31 89.7 µM | COLO 205 > 100 µM | K562 > 100 µM | UACC-62 > 100 µM | SK-MEL-5 > 100 µM | CAKI-1 > 100 µM | U-251 > 100 µM | EKVX > 100 µM | TK-10 > 100 µM | LOX IMVI > 100 µM | SN12C > 100 µM | NCI-H23 > 100 µM | ACHN > 100 µM | KM12 > 100 µM | DU-145 > 100 µM | NCI/ADR-RES > 100 µM | MDA-N > 100 µM | IGROV-1 > 100 µM | RXF 393 > 100 µM | SNB-19 > 100 µM | M14 > 100 µM | A549 > 100 µM | SR > 100 µM | MDA-MB-231 > 100 µM | MCF7 > 100 µM | Hs-578T > 100 µM | RPMI-8226 > 100 µM | BT-549 > 100 µM | NCI-H226 > 100 µM | NCI-H522 > 100 µM | UACC-257 > 100 µM | HL-60 > 100 µM | SK-OV-3 > 100 µM | SF-268 > 100 µM | MOLT-4 > 100 µM | HCC 2998 > 100 µM | CCRF-CEM > 100 µM | Malme-3M > 100 µM | A498 > 100 µM | OVCAR-5 > 100 µM | HOP-62 > 100 µM | OVCAR-4 > 100 µM | SK-MEL-2 > 100 µM | SF-295 > 100 µM | HOP-92 > 100 µM | T47D > 100 µM | HCT-116 > 100 µM | MDA-MB-435 > 100 µM
